# Reference: patent publication US9309242B2, “Substituted pyrido[2,3-b]pyrazines as FGFR kinase inhibitors” (priority 2011, dated 2016)
# Read-outs that look alike come from different tables or passages of the source.
# How the values were obtained:
# [1] = target: Ba/F3-FGFR4-transfected cells (Homo sapiens, UniProt P22455); test: Ba/F3-FGFR4 cellular proliferation assay, Alamar Blue; assay type: cell-based
# Method in brief: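 Proliferation is measured by resazurin reduction: after 24 h compound treatment at 37 °C in RPMI-1640/10% FBS, cells get Alamar Blue for 4 h before RFU read (540/590 nm). Each well holds 20000 Ba/F3-FGFR4-transfected cells.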
# [2] = test system: Ba/F3-FGFR1-transfected cells; test: Ba/F3-FGFR1 (plus IL3) cellular proliferation assay, counterscreen with 10 ng/ml murine IL3; assay type: cell-based; conditions: plus IL3 (10 ng/ml murine IL3, counterscreen); read-out: BAF3-FGFR1 (PLUS IL3) pIC50 (converted)
# Method in brief: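 Proliferation read-out: resazurin-based Alamar Blue fluorescence (540/590 nm) after 4 h, following 24 h compound treatment of 20000 Ba/F3-FGFR1 cells per well in 10% FBS RPMI at 37° C. IL3 counterscreen used the same protocol plus 10 ng/ml murine IL3.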
# [3] = target: T1, Ba/F3-FGFR3-transfected cells (Homo sapiens, UniProt P22607); test: Ba/F3-FGFR3 (minus IL3) cellular proliferation assay, Alamar Blue; assay type: cell-based
# T1 construct: BAF3-FGFR3 (MIN IL3) pIC50; other: minus IL3
# Method in brief: (§1)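 With or without 10 ng/ml murine IL3, FGFR3-dependent Ba/F3 cells were treated 24 h with compound, then viability was gauged by Alamar Blue fluorescence after 4 h (ex 540/em 590 nm).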
# [4] = target: FGFR4 (h) (Homo sapiens, UniProt P22455); test: FGFR4 (enzymatic assay), TR-FRET; assay type: biochemical; conditions: FGFR 4 pIC50, enzymatic assay
# [5] = test system: Ba/F3-FGFR3-transfected cells; test: Ba/F3-FGFR3 (plus IL3) cellular proliferation assay, counterscreen with 10 ng/ml murine IL3; assay type: cell-based; conditions: plus IL3 (10 ng/ml murine IL3, counterscreen); read-out: BAF3-FGFR3 (PLUS IL3) pIC50 (converted)
# Method in brief: as §1
# [6] = target: FGFR2 (h) (Homo sapiens, UniProt P21802); test: FGFR2 (enzymatic assay), TR-FRET; assay type: biochemical; conditions: enzymatic assay, read-out: FGFR 2 pIC50 (converted)
# Method in brief: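 hFGFR2 150 ng/ml; Btn-Flt3 500 nM; ATP 0.4 μM; 50 mM HEPES pH 7.5, 6 mM MnCl2, 1 mM DTT, 0.1 mM Na3VO4, 0.01% Triton-X-100; 1% DMSO final.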
# [7] = test system: Ba/F3-KDR-transfected cells; test: Ba/F3-KDR (plus IL3) cellular proliferation assay, counterscreen with 10 ng/ml murine IL3; assay type: cell-based; conditions: plus IL3 (10 ng/ml murine IL3, counterscreen); read-out: BAF3-KDR (PLUS IL3) pIC50 (converted)
# Method in brief: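 Proliferation read-out by Alamar Blue fluorescence (ex. 540 nm, em. 590 nm) after 4 hours, following 24 hours of compound treatment at 37° C of 20000 Ba/F3-KDR cells per well in RPMI-1640/10% FBS. Same protocol with 10 ng/ml murine IL3 serves as counterscreen.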
# [8] = target: T2, Ba/F3-FGFR1-transfected cells (Homo sapiens, UniProt P11362); test: Ba/F3-FGFR1 (minus IL3) cellular proliferation assay, Alamar Blue; assay type: cell-based
# T2 construct: BAF3-FGFR1 (MIN IL3) pIC50; other: minus IL3
# Method in brief: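 Viability of transfected Ba/F3-FGFR1 cells (20000 per well, RPMI-1640 with 10% FBS and 2 mM L-glutamine) was scored by resazurin-based Alamar Blue reduction over 4 h, after 24 h treatment with compound at 37 °C under 5% CO2.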
# [9] = target: FGFR1 (h) (Homo sapiens, UniProt P11362); test: FGFR1 (enzymatic assay), TR-FRET; assay type: biochemical; conditions: read-out: FGFR 1 pIC50 (converted)
# [10] = target: FGFR3 (h) (Homo sapiens, UniProt P22607); test: FGFR3 (enzymatic assay), TR-FRET; assay type: biochemical; conditions: read-out: FGFR 3 pIC50 (converted)
# Source text: Time-Resolved Fluorescence Resonance Energy Transfer (TR-FRET) signal (ex340 nm.
# [11] = average values if tested multiple times
# FGFR1 (h), sequence (P11362 22-822): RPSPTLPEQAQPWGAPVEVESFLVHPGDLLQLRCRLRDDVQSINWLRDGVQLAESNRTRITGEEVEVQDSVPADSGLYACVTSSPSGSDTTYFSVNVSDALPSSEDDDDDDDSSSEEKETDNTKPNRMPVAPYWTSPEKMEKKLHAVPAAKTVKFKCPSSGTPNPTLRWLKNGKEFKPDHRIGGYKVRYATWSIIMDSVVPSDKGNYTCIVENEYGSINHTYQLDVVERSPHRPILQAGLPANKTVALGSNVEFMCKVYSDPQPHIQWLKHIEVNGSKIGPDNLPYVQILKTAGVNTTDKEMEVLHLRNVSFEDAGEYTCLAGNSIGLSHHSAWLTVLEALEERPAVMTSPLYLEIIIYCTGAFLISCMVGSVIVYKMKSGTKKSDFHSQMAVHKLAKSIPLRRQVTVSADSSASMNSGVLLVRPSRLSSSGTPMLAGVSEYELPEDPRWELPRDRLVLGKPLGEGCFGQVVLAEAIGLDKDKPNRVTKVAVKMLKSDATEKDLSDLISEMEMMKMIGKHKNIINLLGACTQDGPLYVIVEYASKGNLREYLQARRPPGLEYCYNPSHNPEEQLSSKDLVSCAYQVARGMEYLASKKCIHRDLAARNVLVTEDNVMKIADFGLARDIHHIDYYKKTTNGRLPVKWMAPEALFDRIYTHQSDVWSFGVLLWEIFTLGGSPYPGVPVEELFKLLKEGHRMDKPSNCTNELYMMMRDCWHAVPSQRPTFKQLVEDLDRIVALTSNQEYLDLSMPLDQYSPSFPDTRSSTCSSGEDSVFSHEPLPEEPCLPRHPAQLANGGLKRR
# T2 sequence (P11362 whole entry, change not shown): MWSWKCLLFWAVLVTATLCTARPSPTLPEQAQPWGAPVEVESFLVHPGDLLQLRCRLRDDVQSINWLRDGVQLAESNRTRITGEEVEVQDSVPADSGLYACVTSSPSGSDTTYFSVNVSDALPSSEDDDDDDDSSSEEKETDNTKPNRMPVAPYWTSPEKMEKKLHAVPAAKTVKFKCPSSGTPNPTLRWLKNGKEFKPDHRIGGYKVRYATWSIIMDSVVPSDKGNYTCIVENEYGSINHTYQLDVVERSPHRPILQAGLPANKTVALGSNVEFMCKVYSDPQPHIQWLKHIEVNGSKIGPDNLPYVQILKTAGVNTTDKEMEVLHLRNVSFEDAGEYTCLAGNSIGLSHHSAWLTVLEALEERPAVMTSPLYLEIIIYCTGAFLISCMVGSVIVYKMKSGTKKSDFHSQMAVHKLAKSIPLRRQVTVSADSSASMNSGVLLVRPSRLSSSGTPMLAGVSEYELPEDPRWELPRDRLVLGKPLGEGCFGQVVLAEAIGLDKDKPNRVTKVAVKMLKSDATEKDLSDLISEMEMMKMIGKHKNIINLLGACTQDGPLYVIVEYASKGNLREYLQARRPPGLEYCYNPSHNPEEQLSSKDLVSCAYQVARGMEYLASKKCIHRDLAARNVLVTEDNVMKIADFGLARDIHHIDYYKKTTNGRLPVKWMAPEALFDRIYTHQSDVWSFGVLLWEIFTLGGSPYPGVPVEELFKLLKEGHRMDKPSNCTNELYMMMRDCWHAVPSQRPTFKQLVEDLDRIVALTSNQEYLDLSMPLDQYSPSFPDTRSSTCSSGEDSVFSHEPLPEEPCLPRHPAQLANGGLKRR
# FGFR3 (h), sequence (P22607 23-806): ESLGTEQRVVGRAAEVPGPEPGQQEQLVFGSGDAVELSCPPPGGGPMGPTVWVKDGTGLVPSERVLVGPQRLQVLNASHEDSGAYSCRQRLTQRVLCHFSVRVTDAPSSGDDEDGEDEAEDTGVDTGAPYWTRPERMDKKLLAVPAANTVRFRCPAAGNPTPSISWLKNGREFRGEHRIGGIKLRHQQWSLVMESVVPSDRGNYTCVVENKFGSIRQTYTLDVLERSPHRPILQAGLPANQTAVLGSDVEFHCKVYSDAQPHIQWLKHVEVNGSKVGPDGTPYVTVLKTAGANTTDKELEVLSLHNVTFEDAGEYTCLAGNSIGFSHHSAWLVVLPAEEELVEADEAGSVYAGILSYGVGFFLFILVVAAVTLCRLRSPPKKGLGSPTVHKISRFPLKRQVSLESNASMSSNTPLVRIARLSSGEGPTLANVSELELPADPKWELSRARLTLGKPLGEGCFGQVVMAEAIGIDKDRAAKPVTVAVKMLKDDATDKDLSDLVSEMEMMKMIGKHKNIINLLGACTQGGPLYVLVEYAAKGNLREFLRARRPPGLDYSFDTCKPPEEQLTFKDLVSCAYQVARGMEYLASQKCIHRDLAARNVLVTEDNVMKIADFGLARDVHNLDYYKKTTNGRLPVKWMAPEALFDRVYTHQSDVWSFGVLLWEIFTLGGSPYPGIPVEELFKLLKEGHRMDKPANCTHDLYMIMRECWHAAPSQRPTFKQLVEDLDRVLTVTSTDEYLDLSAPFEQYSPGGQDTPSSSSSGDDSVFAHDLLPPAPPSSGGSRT
# FGFR4 (h), sequence (P22455 22-802): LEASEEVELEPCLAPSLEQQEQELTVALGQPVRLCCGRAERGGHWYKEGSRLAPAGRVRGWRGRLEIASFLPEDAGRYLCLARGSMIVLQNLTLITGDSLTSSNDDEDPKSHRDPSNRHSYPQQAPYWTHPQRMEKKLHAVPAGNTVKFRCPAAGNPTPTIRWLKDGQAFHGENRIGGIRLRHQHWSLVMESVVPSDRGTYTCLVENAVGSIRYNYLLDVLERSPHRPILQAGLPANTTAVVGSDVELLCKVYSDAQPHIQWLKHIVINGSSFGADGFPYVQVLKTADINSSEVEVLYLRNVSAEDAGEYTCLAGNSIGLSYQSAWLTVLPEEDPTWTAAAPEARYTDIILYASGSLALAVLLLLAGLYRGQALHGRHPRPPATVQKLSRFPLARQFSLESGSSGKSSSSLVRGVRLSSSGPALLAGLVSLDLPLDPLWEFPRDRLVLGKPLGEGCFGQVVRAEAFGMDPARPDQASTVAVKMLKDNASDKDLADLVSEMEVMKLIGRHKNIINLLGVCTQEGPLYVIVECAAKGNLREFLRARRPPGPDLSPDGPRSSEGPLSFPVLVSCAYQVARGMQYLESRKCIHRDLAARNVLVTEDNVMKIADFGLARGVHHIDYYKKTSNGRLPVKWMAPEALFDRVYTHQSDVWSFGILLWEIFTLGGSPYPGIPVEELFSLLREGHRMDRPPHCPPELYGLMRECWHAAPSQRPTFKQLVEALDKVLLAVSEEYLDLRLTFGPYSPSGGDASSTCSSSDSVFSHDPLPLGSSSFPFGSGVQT
# T1 sequence (P22607 whole entry, change not shown): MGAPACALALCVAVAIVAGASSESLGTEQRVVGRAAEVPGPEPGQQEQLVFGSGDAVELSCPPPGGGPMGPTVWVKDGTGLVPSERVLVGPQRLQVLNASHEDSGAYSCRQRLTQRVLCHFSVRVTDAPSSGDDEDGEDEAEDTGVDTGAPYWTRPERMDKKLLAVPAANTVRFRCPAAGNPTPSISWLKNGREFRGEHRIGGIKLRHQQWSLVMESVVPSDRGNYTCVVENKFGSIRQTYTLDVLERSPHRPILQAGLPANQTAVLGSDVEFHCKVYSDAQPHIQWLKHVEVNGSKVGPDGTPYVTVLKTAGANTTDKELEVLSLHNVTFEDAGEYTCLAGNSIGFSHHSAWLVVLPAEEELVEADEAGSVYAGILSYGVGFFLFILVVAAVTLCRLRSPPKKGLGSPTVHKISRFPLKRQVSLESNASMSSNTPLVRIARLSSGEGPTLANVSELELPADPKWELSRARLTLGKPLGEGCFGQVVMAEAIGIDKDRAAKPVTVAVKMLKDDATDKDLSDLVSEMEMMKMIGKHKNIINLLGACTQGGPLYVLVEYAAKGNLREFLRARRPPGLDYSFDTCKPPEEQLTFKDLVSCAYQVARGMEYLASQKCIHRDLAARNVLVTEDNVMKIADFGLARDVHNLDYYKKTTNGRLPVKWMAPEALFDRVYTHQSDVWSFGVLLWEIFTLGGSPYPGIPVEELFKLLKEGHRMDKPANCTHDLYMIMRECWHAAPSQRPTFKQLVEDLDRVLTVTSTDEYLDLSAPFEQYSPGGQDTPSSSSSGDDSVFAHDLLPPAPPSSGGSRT
# FGFR2 (h), sequence (P21802 22-821): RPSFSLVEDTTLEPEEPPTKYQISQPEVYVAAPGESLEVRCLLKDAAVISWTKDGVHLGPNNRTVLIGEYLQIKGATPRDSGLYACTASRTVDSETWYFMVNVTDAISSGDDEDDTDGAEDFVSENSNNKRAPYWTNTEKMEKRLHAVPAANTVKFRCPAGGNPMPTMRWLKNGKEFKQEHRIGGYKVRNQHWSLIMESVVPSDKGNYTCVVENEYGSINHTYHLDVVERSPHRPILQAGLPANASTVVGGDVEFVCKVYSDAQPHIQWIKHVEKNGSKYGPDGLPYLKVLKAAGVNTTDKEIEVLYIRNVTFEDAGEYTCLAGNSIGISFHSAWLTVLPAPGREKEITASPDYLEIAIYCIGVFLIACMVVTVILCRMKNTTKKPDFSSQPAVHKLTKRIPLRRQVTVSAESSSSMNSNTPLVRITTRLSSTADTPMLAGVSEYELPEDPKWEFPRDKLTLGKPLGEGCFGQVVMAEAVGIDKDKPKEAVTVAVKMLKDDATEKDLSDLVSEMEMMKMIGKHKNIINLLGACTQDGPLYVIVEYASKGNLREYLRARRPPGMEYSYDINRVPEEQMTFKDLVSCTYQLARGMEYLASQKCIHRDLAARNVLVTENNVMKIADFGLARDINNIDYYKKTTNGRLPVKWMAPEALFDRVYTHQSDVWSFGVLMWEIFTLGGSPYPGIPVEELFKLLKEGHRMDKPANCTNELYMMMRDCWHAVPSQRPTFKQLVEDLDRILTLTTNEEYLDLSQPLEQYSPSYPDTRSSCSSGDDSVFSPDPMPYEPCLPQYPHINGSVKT
SMILES,BAF3-FGFR4 pIC50 [1],IC50 [2] [nM],BAF3-FGFR3 (MIN IL3) pIC50 [3],IC50 [4] [nM],IC50 [5] [nM],IC50 [6] [nM],IC50 [7] [nM],BAF3-FGFR1 (MIN IL3) pIC50 [8],IC50 [9] [nM],IC50 [10] [nM],"IC50 [4, 11] [nM]","IC50 [6, 11] [nM]","IC50 [9, 11] [nM]","IC50 [10, 11] [nM]"
COc1cc(OC)c(F)c(N(Cc2nncn2C)c2ccc3ncc(-c4cnn(C)c4)nc3n2)c1 [Compound 132],~6.13,> 10000,~6.64,17.4,> 10000,3.02,> 10000,6.62,5.62,4.27,–,–,–,–
COc1cc(OC)cc(N(CCCN2CCCC2=O)c2ccc3ncc(-c4cnn(C)c4)nc3n2)c1 [Compound 134],5.99,> 10000,~6.64,11.7,> 10000,3.09,> 10000,6.43,8.71,3.8,–,–,–,–
COc1cc(OC)c(F)c(N(Cc2nc(C)c[nH]2)c2ccc3ncc(-c4cnn(C)c4)nc3n2)c1 [Compound 135],8.05,> 10000,8.25,1.26,> 10000,1.78,> 10000,8.82,1.17,1.48,–,–,–,–
COc1cc(OC)c(F)c(N(Cc2c[nH]c(C)n2)c2ccc3ncc(-c4cnn(C)c4)nc3n2)c1 [Compound 137],7.23,> 10000,7.64,1.7,> 10000,2.04,> 10000,~8.11,1.48,1.58,–,–,–,–
COc1cc(OC)c(F)c(N(CC2CCCCO2)c2ccc3ncc(-c4cnn(C)c4)nc3n2)c1 (centres unmarked) [Compound 139],6.61,> 10000,7.38,4.17,> 10000,3.31,> 10000,7.40,3.16,2.75,–,–,–,–
COc1cc(OC)c(F)c(N(Cc2nn[nH]n2)c2ccc3ncc(-c4cnn(C)c4)nc3n2)c1 [Compound 140],<5,> 10000,<5,11.7,> 10000,4.47,> 10000,<5,11.7,5.62,–,–,–,–
COc1cc(OC)c(F)c(N(CC2CCC(=O)N2)c2ccc3ncc(-c4cnn(C)c4)nc3n2)c1F (centres unmarked) [Compound 192],7.01,> 10000,7.78,–,> 10000,–,> 10000,7.73,–,–,2.09,2.51,1.15,1.55
COc1cc(OC)c(F)c(/N=c2\ccc3ncc(-c4cnn(C)c4)nc3n2CC2CCC(=O)N2)c1F (centres unmarked) [Compound 193],7.00,> 10000,~8.06,–,> 10000,–,> 10000,8.01,–,–,0.955,0.794,0.55,0.417
